According to paper PMC6662714, “High-throughput identification of peptide agonists against GPCRs by co-culture of mammalian reporter cells and peptide-secreting yeast cells using droplet microfluidics” (Scientific Reports, 2019):

What was measured:
[1] = test system: human GLP1R (hGLP1R); test: Functional cell-based assay, floating hGLP1R/LacZ-293 cells; details: 30 nM authentic Ex4, floating cells 5 × 10^3 cells/50 µL, RPMI-1640, 50 µM CMFDG, 37 °C, 12 h; n = 3; Fig. 3a
Method: (§1) To construct a reporter cell line that constitutively produces human GLP1R (hGLP1R) and inducibily secretes NanoLuc in response to the activation of hGLP1R, pIRES-hGLP1R, and pCRE-NLuc[13], were co-transfected in HEK293 cells (European Collection of Cell Culture, Salisbury, UK) using Xfect™ (Clontech Laboratries, Inc., Mountain View, CA, USA). The transfected cells were cultured in Dulbecco’s Modified Eagle Medium (DMEM) (Nacalai Tesque, Kyoto, Japan) containing 10% FBS (GE Healthcare, Little Chalfont, UK), 1% penicillin-streptomycin (Sigma-Aldrich, St. Louis, MO, USA), 400 µg/mL G418 (Nacalai Tesque), and 0.1 µg/mL puromycin (Wako Pure Chemical Industries, Osaka, Japan). The reporter cells were selected to establish a stable cell line harboring GLP1R and secretory NanoLuc genes (hGLP1R/NLuc-293)[13]. To construct a reporter cell line that secretes LacZ in response to the activation of hGLP1R, pIRES-hGLP1R[13], and pCRE-LacZ were co-transfected in HEK293 cells, and a reporter cell line, hGLP1R/LacZ-293, was selected using a medium containing G418 and puromycin. […]
An assay using floating hGLP1R/LacZ-293 was carried out using the following procedure. […] Immediately after the modification, the solution was placed in a 96-well plate and incubated at 37 °C for 12 h, and fluorescence intensity was measured.

[2] = test system: human GLP1R (hGLP1R); test: Functional cell-based assay in droplets (droplet microfluidics), hGLP1R/LacZ-293; details: 6 h, Fig. 4b; for fluorescence intensity of droplets: DMEM, 50 µM CMFDG, 30 °C, at least 70 droplets
Source text: A single-inlet microfluidic device was designed according to previous reports[39],[40] (Fig. S1). In brief, polydimethylsiloxane (PDMS, Sylgard 184, Dow Corning Corp, Midland, MI, USA) and its cross-linker were mixed at a ratio of 10:1 (w/w), degassed, poured onto a master mold, and cured. The cured PDMS was peeled from the mold and punched with 0.75 mm biopsy punch (World Precision Instruments, Sarasota, FL, USA). The PDMS slab was bonded to a glass slide by plasma treatment (Plasma Cleaner PDG-32G; Harrick Scientific, Pleasantville, NY, USA), and baked for at least 30 min at 70 °C. The microfluidics device, an air compressor, Mitos P-Pump Basic (Dolomite, Charleston, MA, USA) were connected, and the pressure was set to be about 150 mbar for aqueous phase and about 300 mbar for oil phase. To generate droplets, cell suspension and a carrier phase (FC40 containing 5% (v/v) of the surfactant Pico-Surf1, Dolomite), were pumped into the cross-junction.
As a proof-of-principle experiment, hGLP1R/LacZ-293 was suspended at 5.0 × 10^6 cells/mL in the following media: DMEM, DMEM containing authentic Ex4, DMEM containing WT S. cerevisiae (Yeast-WT), or DMEM containing Ex4-secreting S. cerevisiae (Yeast-Ex4). The concentration of yeast cells was set to be 9.1 × 10^6 cells/mL. CMFDG was added in the media to realize a concentration of 50 µM. After encapsulation, the droplets were incubated at 30 °C for 6 h. Fluorescence intensity of each droplet was calculated by image analysis under a confocal laser scanning fluorescence microscope.

[3] = test system: human GLP1R (hGLP1R); test: Functional cell-based assay, adherent hGLP1R/LacZ-293 reporter cells (LacZ fluorescence); details: DMEM, 50 µM CMFDG, 37 °C, 12 h
Method: as §1, with “(hGLP1R/NLuc-293)[13].” for “(hGLP1R/NLuc-293)[13]. To construct a reporter cell line that secretes LacZ in response to the activation of hGLP1R, pIRES-hGLP1R[13], and pCRE-LacZ were co-transfected in HEK293 cells, and a reporter cell line, hGLP1R/LacZ-293, was selected using a medium containing G418 and puromycin.”
To perform a functional assay using the adherent hGLP1R/LacZ-293 cell line, hGLP1R/LacZ-293 cells were seeded at 5 × 10^3 cells/100 µL in a 96-well plate (Thermo Fisher Scientific) and cultured at 37 °C for 24 h. […] After 12 h incubation at 37 °C, fluorescence intensity was measured using Fluoroskan Ascent™ Microplate Fluorometer.

[4] = test system: human GLP1R (hGLP1R); test: Co-culture of floating hGLP1R/LacZ-293 and ligand-secreting yeast cells; type: cell-based; details: co-culture with yeast cells secreting Ex4 (4.5 × 10^5 cells/50 µL) vs WT yeast, RPMI-1640, 50 µM CMFDG, 37 °C, 12 h, n = 3, Fig. 3b
Source text: Saccharomyces cerevisiae BY4742 [MATα, his3Δ1, leu2Δ0, lys2Δ0, ura3Δ0] (GE Healthcare) was used for the secretion of a hGLP1R agonist, Exendin-4 (Ex4, produced by the Gila monster[31]) and randomized Ex4 variants. To construct an Ex4-secretory yeast, pULS-Ex4[13] was transformed into the BY4742 strain using the Frozen-EZ Yeast Transformation-II Kit (Zymo Research, Orange, CA, USA). Yeast cells secreting randomized Ex4 variants were constructed using gap repair cloning[34] as follows. pULS plasmid[13] was digested with EcoRI and KpnI to obtain a linear vector fragment. Insert DNA fragments encoding Ex4 genes whose two N-terminal amino acids were randomized were PCR-amplified from pULS-Ex4 using the following primers: 5′-[…]-3′ and 5′-[…]-3′. The BY4742 strains were transformed using the linear vector fragments (500 ng) and the randomized insert fragments (250 ng) for gap repair cloning. […]
Co-culture of floating hGLP1R/LacZ-293 and ligand-secreting yeast cells was carried out using the following procedure. […] Immediately after the modification, the solution was incubated in a 96-well plate at 37 °C for 12 h, and fluorescence intensity was measured.

[5] = test system: human GLP1R (hGLP1R); test: Functional cell-based assay, adherent hGLP1R/NLuc-293 reporter cells (NanoLuc luminescence); details: DMEM, 37 °C, 12 h
Method: To construct a reporter cell line that constitutively produces human GLP1R (hGLP1R) and inducibily secretes NanoLuc in response to the activation of hGLP1R, pIRES-hGLP1R, and pCRE-NLuc[13], were co-transfected in HEK293 cells (European Collection of Cell Culture, Salisbury, UK) using Xfect™ (Clontech Laboratries, Inc., Mountain View, CA, USA). The transfected cells were cultured in Dulbecco’s Modified Eagle Medium (DMEM) (Nacalai Tesque, Kyoto, Japan) containing 10% FBS (GE Healthcare, Little Chalfont, UK), 1% penicillin-streptomycin (Sigma-Aldrich, St. Louis, MO, USA), 400 µg/mL G418 (Nacalai Tesque), and 0.1 µg/mL puromycin (Wako Pure Chemical Industries, Osaka, Japan). […]
To perform a functional assay using the adherent hGLP1R/NLuc-293 cell line, hGLP1R/NLuc-293 cells were seeded at 5 × 10^3 cells/100 µL in a 96-well plate (Thermo Fisher Scientific) and cultured at 37 °C for 24 h. […] Afterwards, 50 µL luciferase substrate (Nano-Glo™ Luciferase Assay System, Promega, Fitchburg, WI, USA) was added, and luminescence intensity was measured using a Fluoroskan Ascent™ Microplate Fluorometer (Thermo Fisher Scientific).
To verify the activities of the identified Ex4 variants, we prepared variant peptides using E. coli as follows. […] The calibration curve used for quantification was obtained with standard FLAG peptides (Wako Pure Chemical Industries).

[6] = test system: GLP1R; details: cited from earlier work
Source text: To investigate whether the activity of the peptides was not influenced by the post-translational modifications by yeast or differences in secretion efficiencies, WT Ex4 and Ex4 variants fused with an N-terminal FLAG sequence were produced using Escherichia coli. The peptides were purified using anti-FLAG resin, and reacted with enterokinase, which cleaves the peptides after the FLAG sequence to expose free N-terminal of Ex4 peptides. We added the purified WT Ex4 produced by E. coli with or without enterokinase reactions to the hGLP1R/NLuc-293 cells, and observed a significant increase in lumin ...

[7] = 30 nM authentic Ex4 vs 0 nM, mean ± SD (n = 3), two-tailed Student's t-test, Fig. 2a
[8] = culture supernatants of Ex4-secretory yeast (yeast-Ex4) vs WT yeast, n = 3, Fig. 2b

exendin-4 [Ex4]
fluorescence (LacZ reporter) [1]: significant increase in fluorescence | overlap of box plots of droplet fluorescence, "Ex4" vs "no ligand" ([2]; 30 nM authentic Ex4, 30 °C): partially overlapped | fluorescence intensity of droplets ([2]; 30 nM authentic Ex4 vs no ligand, two-tailed Student's t-test): significant increases in fluorescence intensity | fluorescence intensity of droplets ([2]; yeast cells secreting Ex4 (9.1 × 10^6 cells/mL) vs Yeast-WT): significant increases in fluorescence intensity | reporter signal (LacZ fluorescence) [3, 7]: significant reporter signals in both lines | reporter signal (LacZ fluorescence) [3, 8]: significant reporter signals in both lines | fluorescence (LacZ reporter) [4]: significant increase in fluorescence | reporter signal (NanoLuc luminescence) [5, 7]: significant reporter signals in both lines | reporter signal (NanoLuc luminescence) [5, 8]: significant reporter signals in both lines | agonist strength at GLP1R [6]: very strong agonist
